Measured values published in publication PMC3355106, “Structural Basis for Specificity of Propeptide-Enzyme Interaction in Barley C1A Cysteine Peptidases” (PLoS ONE, 2012).
Peptide text beside a SMILES is read from it. * marks the point of attachment. AMC = Cc1cc(=O)oc2cc(N*)ccc12; Cbz = O=C(OCc1ccccc1)*

How the values were obtained:
Assay in all cases: fluorescence of released AMC
Type in all cases: biochemical
Conditions in all cases: pH 6.0, 30 °C, 10 mM L-cysteine, 10 mM EDTA, 0.01% Brij35
HvPap-4 = target: T1, HvPap-4 (Hordeum vulgare, UniProt B4ESE6)
T1 construct: gene pap-4; propeptide printed as R25-D134
T1 sequence (B4ESE6 entry or part of it): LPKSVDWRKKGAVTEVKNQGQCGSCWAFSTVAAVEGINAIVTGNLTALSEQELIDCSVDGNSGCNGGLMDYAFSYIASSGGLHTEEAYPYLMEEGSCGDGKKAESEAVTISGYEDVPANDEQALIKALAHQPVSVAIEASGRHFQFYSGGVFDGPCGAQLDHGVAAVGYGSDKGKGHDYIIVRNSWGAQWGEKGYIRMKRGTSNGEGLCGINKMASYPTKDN

HvPap-16 = target: T2, HvPap-16 (Hordeum vulgare, UniProt B4ESF4)
T2 construct: gene pap-16; the propeptide cloning list prints HvPap-17 (A23-V156) instead of HvPap-16
T2 sequence (B4ESF4 entry or part of it): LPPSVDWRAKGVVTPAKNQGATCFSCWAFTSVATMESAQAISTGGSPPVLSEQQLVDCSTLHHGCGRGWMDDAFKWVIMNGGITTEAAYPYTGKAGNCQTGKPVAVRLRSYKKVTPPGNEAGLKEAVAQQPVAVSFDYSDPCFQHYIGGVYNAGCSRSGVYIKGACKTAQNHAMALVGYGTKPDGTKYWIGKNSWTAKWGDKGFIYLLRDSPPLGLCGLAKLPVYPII

HvPap-6 = target: T3, HvPap-6 (Hordeum vulgare, UniProt B4ESE8)
T3 construct: gene pap-6; propeptide printed as A25-E131
T3 sequence (B4ESE8 entry or part of it): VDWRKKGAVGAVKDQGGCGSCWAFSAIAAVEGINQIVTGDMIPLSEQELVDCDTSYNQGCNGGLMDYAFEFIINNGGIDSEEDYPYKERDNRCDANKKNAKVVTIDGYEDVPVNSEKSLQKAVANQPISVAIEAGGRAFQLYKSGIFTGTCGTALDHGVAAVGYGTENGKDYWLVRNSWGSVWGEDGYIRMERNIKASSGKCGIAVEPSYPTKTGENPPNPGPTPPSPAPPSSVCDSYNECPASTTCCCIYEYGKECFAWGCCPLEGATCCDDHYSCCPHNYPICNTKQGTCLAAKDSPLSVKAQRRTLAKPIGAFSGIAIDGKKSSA

BovCathB = target: T4, BovCathB (Bos taurus, UniProt P07688)
T4 construct: gene CTSB; commercial enzyme (Calbiochem)

## Cc1cc(=O)oc2cc(NC(=O)[C@H](CCCNC(=N)N)NC(=O)[C@H](Cc3ccccc3)NC(=O)OCc3ccccc3)ccc12 [Z-FR-AMC] (Cbz-Phe-Arg-{AMC})
HvPap-4
  fluorescence of released AMC: Z-FR-AMC (for cathepsin L) or Z-RR-AMC (for cathepsin B) fluorescent substrates were added
HvPap-16
  fluorescence of released AMC: Z-FR-AMC (for cathepsin L) or Z-RR-AMC (for cathepsin B) fluorescent substrates were added
HvPap-6
  fluorescence of released AMC: Z-FR-AMC (for cathepsin L) or Z-RR-AMC (for cathepsin B) fluorescent substrates were added

## Cc1cc(=O)oc2cc(NC(=O)[C@H](CCCNC(=N)N)NC(=O)[C@H](CCCNC(=N)N)NC(=O)OCc3ccccc3)ccc12 [Z-RR-AMC] (Cbz-Arg-Arg-{AMC})
BovCathB
  fluorescence of released AMC: Z-FR-AMC (for cathepsin L) or Z-RR-AMC (for cathepsin B) fluorescent substrates were added
